The source of these data is US4650661A, “Enzyme inhibitors” (priority 1982, dated 1987).

In assay [1] the test system is acid proteases. The settings on record: cited from earlier work.
The target of assay [2] is T1, human renin (Homo sapiens, UniProt P00797).
T1 sequence (P00797 67-406): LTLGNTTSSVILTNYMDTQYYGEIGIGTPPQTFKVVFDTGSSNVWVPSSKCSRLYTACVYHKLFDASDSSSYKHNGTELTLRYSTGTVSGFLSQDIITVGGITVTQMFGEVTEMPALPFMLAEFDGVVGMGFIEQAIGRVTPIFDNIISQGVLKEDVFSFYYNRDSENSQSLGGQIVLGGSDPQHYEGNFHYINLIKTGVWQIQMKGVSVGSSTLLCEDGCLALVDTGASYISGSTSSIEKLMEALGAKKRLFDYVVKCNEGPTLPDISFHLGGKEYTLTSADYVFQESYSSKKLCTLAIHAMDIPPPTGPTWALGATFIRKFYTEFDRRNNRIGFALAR
The assay can be described thus: renin inhibition, methods of published European specification. It is filed as biochemical. An excerpt: (§1) This compound is the subject of Example 1 below.

The subject of assay [3] is baboon renin. The experiment in a line: renin inhibition, baboon renin. It counts as biochemical. The settings on record: preliminary results, read-out: IC50 against baboon renin (preliminary results).
Text: as §1
The following are the fully detailed examples referred to earlier. The activity of H-176 (Example I) has already been given.

Like-named read-outs stand apart in the source and are kept apart here. Non-standard residues stand in square brackets, D forms with d. Residues, ends and D or L forms follow the SMILES beside them. *: point of attachment. Sta = CC(C)C[C@H](N)[C@@H](O)CC(=O)O; Isovaleryl = CC(C)CC(=O)*

`CC(C)CC(=O)N[C@H](C(=O)N[C@H](C(=O)N[C@@H](CC(C)C)[C@@H](O)CC(=O)N[C@@H](C)C(=O)N[C@@H](CC(C)C)[C@@H](O)CC(=O)O)C(C)C)C(C)C` [pepstatin, iso-valeryl-L-valyl-L-valyl-S,S,-statyl-L-alanyl-S,S-statine] (Isovaleryl-VV[Sta]A[Sta]-OH): the “inhibition of acid proteases (pepsin, cathepsin D, chymosin, renin)” value in assay [1] was “inhibits acid proteases in general”.
Consider H-HPFH[Sta]VIH-OH [Example H-176], for which the IC50 in assay [2] (read-out: IC50 against human renin) is 0.016 µM.
As for H-PHPFH[Sta]VIHK-OH [Example H-189], the IC50 was determined as 0.012 µM in assay [3] and 0.009 µM in assay [2] (preliminary results, read-out: IC50 against human renin (preliminary results)).

A word on the IC50: it is the midpoint of a concentration-inhibition curve.
